Data set [1] can be described thus: Colour and colour stability of emulsion on storage. The data set is classed as physicochemical. The note with it: emulsion prepared with the substance.
Another data set in a line: Solubility in water. In kind it is physicochemical.

Regarding `C[C@@H]1O[C@@H](OC[C@H]2O[C@@H](Oc3c(-c4ccc(O)c(O)c4)oc4cc(O)cc(O)c4c3=O)[C@H](O)[C@@H](O)[C@@H]2O)[C@H](O)[C@H](O)[C@H]1O` [rutin], in data set [1], the “colour / colour stability of emulsion” value was “beige in colour and on storage turns dark brown”. Regarding `C[C@@H]1O[C@@H](O[C@H]2[C@H](Oc3cc(O)c4c(c3)O[C@H](c3ccc(O)cc3)CC4=O)O[C@H](CO)[C@@H](O)[C@@H]2O)[C@H](O)[C@H](O)[C@H]1O` [naringin], in data set [1], the “colour / colour stability of emulsion” value is “less susceptible to colouration problems than other flavone derivatives”. Further, in the data set “Solubility in water”, the solubility in water entry is “poorly soluble in water”. In the case of `COc1ccc([C@@H]2CC(=O)c3c(O)cc(O[C@@H]4O[C@H](CO[C@@H]5O[C@@H](C)[C@H](O)[C@@H](O)[C@H]5O)[C@@H](O)[C@H](O)[C@H]4O)cc3O2)cc1O` [hesperidin], the “colour / colour stability of emulsion” value in data set [1] is listed as “less susceptible to colouration problems than other flavone derivatives”. Besides, the solubility in water result in “Solubility in water” is given as “poorly soluble in water”. As to `O=c1c(O)c(-c2ccc(O)c(O)c2)oc2cc(O)cc(O)c12` [quercetin], the “colour / colour stability of emulsion” value in data set [1] is “deeply yellow in colour”. `C[C@@H]1O[C@@H](OC[C@H]2O[C@@H](Oc3c(-c4ccc(OCCO)c(OCCO)c4)oc4cc(OCCO)cc(O)c4c3=O)[C@H](O)[C@@H](O)[C@@H]2O)[C@H](O)[C@H](O)[C@H]1O` [troxerutin, 7,3',4'-tris[O-(2-hydroxyethyl)]rutin]: the “colour / colour stability of emulsion” value in data set [1] is reported as “long term colour stability”. Besides, the solubility in water result in “Solubility in water” is recorded as “ease of solubility in water”.

The values above are taken from patent EP2185126B1, “USE OF TROXERUTIN TO QUENCH THE FLUORESCENCE OF DISODIUM PHENYL DIBENZIMIDAZOLE TETRASULFONATE” (Symrise AG, priority 2007, dated 2007).
